In publication PMC7180617, “Biological Evaluation of 3-Benzylidenechromanones and Their Spiropyrazolines-Based Analogues” (Molecules, 2020):
Where “and” joins values, the source holds several entries; their conditions need not be identical. Identical values can stand only once.

How the values were obtained:
[1] = Lipophilicity (logP) by RP-TLC; details: RP-18 F254S TLC plates
Description: Lipophilicity is one of the most important physicochemical properties in pharmaceutical research. It can be considered a key determinant of the pharmacokinetic properties of a drug. It is commonly measured by the partition coefficient between water and n-octanol, being expressed as logP [14]. […] Knowledge of the partition coefficient is valuable: it is frequently used in structure–activity relationship (SAR) and quantitative structure–activity relationship (QSAR) studies. The experimental lipophilicity of the synthesized compounds, viz. benzylideneflavanones, benzylidenechromanones and spiropyrazolines, was determined using RP-TLC. […] It is important to examine the relationship between structure of the compound and its lipophilicity and cytotoxicity.
The RP-TLC experiments were performed on TLC plates (5 × 10 cm) RP-18 F254S (Merck, Darmstadt, Germany). The synthesized compounds were dissolved in N,N-dimethylformamide DMF (2 mg/mL). […] A DMF-water solvent system was used as mobile phase. […] All experiments were performed at room temperature. The logP parameter was calculated using the equation from the calibration curve.

HL-60 cells [2] = tested on: HL-60 cells; set-up: method as in PMID 30513785; details: MTT; cited from earlier work
HL-60 cells [3] = experiment: Cell cycle analysis by flow cytometry (propidium iodide); assay type: cell-based, human; details: for cell cycle, G1, mean / cell cycle, G2/M, mean / cell cycle, S, mean: mean of n=2; for cell cycle distribution, G1 / cell cycle distribution, G2 / cell cycle distribution, G2/M: HL-60, 20 h, mean ± SD, n = 2; for cells arrested in G2/M phase: HL-60, concentrations of IC50 and 0.5 × IC50
Protocol: The next stage examined the effects of the selected compounds on cell cycle progression in HL-60 leukemia cells. […] One million HL-60 (subline CCL 240; cell type: promyeloblast) cells in 3 mL of RPMI 1640 supplemented with 20% FBS were seeded on 6-well plate. […] Fixed cells were stored in −20 °C for 2–3 days. Before analysis, cells were centrifuged (10 min, 1500 rpm, 4 °C) and washed twice with cold PBS. After the second wash, the cells were suspended in 1mL of PBS containing 100 μg of RNase A and incubated in 37 °C for 10 min. Next, 5 μL of solution of propidium iodide (1 mg/mL) was added to each sample and incubated in dark for 30 min at RT. Stained cells were analyzed by flow cytometry (FACS Calibur, BD Biosciences, San Jose, CA, USA). Data from 10,000 gated cells were collected using CellQuestPro software (Ver 6.0, Becton Dickinson) and cell cycle analysis was performed with ModFit LT software (Ver 3.2, Verity Software House, Topsham, ME, USA).

NALM-6 cells = tested on: NALM-6 cells; set-up: method as in PMID 30513785; details: MTT; cited from earlier work
WM-115 cells = tested on: WM-115 cells; set-up: method as in PMID 30513785; details: MTT; cited from earlier work
plasmid DNA (pcDNAHisC) = experiment: Digestion of plasmid DNA with BamHI restriction nuclease (DNA-cleavage protection); assay type: biochemical; details: 10 µM, overnight 37 °C, then BamHI 3 h, agarose gel
Protocol: This cytotoxicity was tested with regard to its effect on the cell cycle and the ability to modify DNA. In addition to the compounds shown in Table 4, two highly-cytotoxic compounds (11 and 12) were also tested. Their structure and biological activity were described in a previous article. […] To test this hypothesis, plasmid DNA was incubated with the test compounds and subsequently digested with BamH1 endonuclease. […] This conclusion is supported by the presence of the circular form of plasmid DNA after digestion with BamH1.
First, 0.5 µg of plasmid DNA (pcDNAHisC, total length 5.5 kbp) containing a unique BamHI restriction site was dissolved in a 1x BamHI reaction buffer and incubated overnight at 37 °C with the test compounds or daunorubicin, which was used as a positive control. The concentration of the test compounds and daunorubicin in the samples was 10 µM. The final concentration of DMSO in all samples was 10%. In the next step, the reaction mixtures were digested with BamHI restriction endonuclease (2 U/µL) for 3 h at 37 °C. Total reaction volume was 10 µL. Products of the reaction were separated in the 1% agarose gel in TBE buffer. The gel was stained with ethidium bromide and DNA fragments were visualized under a UV lamp (GBox, Syngene, Frederick, MD, USA).

[4] = Figure S3, HL-60, 0.5 × IC50 (µM: quercetin 29, 1 1.5, 7 18, 10 4.7, 11 4.5, 12 6)
[5] = Figure S3, HL-60, 0.5 × IC50, each of two repetitions
[6] = Figure S3, HL-60, 1 × IC50 (µM in parenthesis: quercetin 58, 1 3, 7 35, 10 9.4, 11 9, 12 12)
[7] = Figure S3, HL-60, 1 × IC50 (µM: quercetin 58, 1 3, 7 35, 10 9.4, 11 9, 12 12)
[8] = Figure S3, HL-60, 1 × IC50, each of two repetitions
[9] = 0.5 × IC50 (µM: quercetin 29, 2 1.5, 7 18, 12 6, 11 4.5, 10 4.7)
[10] = 1 × IC50 (µM: quercetin 58, 2 3, 7 35, 12 12, 11 9, 10 9.4)

SMILES	chromatographic logP [1]	IC50 (HL-60 cells [2]) [µM]	cell cycle, G1, mean (HL-60 cells [3]; [4])	cell cycle, G2/M, mean (HL-60 cells [3]; [4])	cell cycle, S, mean (HL-60 cells [3]; [4])	cell cycle, G1, single repetitions (HL-60 cells [3]; [5])	cell cycle, G2/M, single repetitions (HL-60 cells [3]; [5])	cell cycle, S, single repetitions (HL-60 cells [3]; [5])	cell cycle, G1, mean (HL-60 cells [3]; [6])	cell cycle, G2/M, mean (HL-60 cells [3]; [7])	cell cycle, S, mean (HL-60 cells [3]; [7])	cell cycle, G2/M, single repetitions (HL-60 cells [3]; [8])	cell cycle, S, single repetitions (HL-60 cells [3]; [8])	cell cycle distribution, G1 (HL-60 cells [3]; [9]) [%]	cell cycle distribution, G2 (HL-60 cells [3]; [9]) [%]	cell cycle distribution, G2/M (HL-60 cells [3]; [9]) [%]	cell cycle distribution, G1 (HL-60 cells [3]; [10]) [%]	cell cycle distribution, G2 (HL-60 cells [3]; [10]) [%]	cell cycle distribution, G2/M (HL-60 cells [3]; [10]) [%]	cells arrested in G2/M phase (HL-60 cells [3])	other results
CCN(CC)c1ccc(C=C2C(=O)c3ccccc3OC2c2ccccc2)cc1 (stereo not shown) [Compound 11, (E)-3-(4-N,N-diethylaminobenzylidene)-2-phenylchroman-4-one]	5.69	8.36 ± 0.63	5,95%	59,23%	34,83%	3,45% and 8,45%	64,13% and 54,32%	27,42% and 42,23%	3,17%	67,76%	29,08%	67,98% and 67,53%	26,86% and 31,30%	3.2 ± 2.8	29.1 ± 3.1	67.8 ± 0.3	6 ± 3.5	34.8 ± 10.5	59.2 ± 6.9	50–60%	cell cycle, G1, single repetitions (HL-60 cells [3]; [8]): 5,16% and 1,17%; IC50 (NALM-6 cells): 9.08 ± 0.3 µM; IC50 (WM-115 cells): 6.45 ± 0.69 µM
CCN(CC)c1ccc(/C=C2\COc3ccccc3C2=O)cc1 [Compound 12, (E)-3-(4-N,N-diethylaminobenzylidene)chroman-4-one]	3.43	11.8 ± 1.97	19,26%	52,38%	28,37%	17,44% and 21,08%	56,79% and 47,96%	22,13% and 34,60%	19,53%	52,44%	28,03%	44,70% and 60,18%	27,06% and 29,00%	19.3 ± 2.6	28.4 ± 8.8	52.4 ± 6.2	19.5 ± 12.3	28.0 ± 1.4	52.4 ± 10.9	50–60%	IC50 (NALM-6 cells): 8.69 ± 0.4 µM; IC50 (WM-115 cells): 18.1 ± 3.14 µM
COc1cccc2c1C(=O)c1c(O)c3c(c(O)c1C2=O)C[C@@](O)(C(C)=O)C[C@@H]3O[C@H]1C[C@H](N)[C@H](O)[C@H](C)O1 [daunorubicin]	–	–	–	–	–	–	–	–	–	–	–	–	–	–	–	–	–	–	–	–	inhibition of BamHI digestion of plasmid DNA (in words) (plasmid DNA (pcDNAHisC)): prevented linearization of DNA
